Test: Test 3-1: metabolic stability test in human hepatic microsome
Type: in vitro ADME
Conditions: Test 3-1: microsome 0.1 mg/mL, test compound 0.1 μmol/L, 37° C., 30 minutes
Experimental: Test 3-1: Metabolic Stability Test in Human Hepatic Microsome
The metabolic stability of the present compound in human hepatic microsome was evaluated as mentioned below. Human hepatic microsome was obtained from Xenontech. Human hepatic microsome, NADPH, and each test compound were mixed in 25 mmol/L phosphate buffer solution (pH 7.4) to reach the following concentrations as shown below, and the mixture was incubated at 37° C. for 30 minutes. • Human hepatic microsome: 0.1 mg/mL • NAPDH: 3.2 mmol/L • Test compound: 0.1 μmol/L
The residual ratio of test compound in each sample after 30 minutes was measured by LC-MS, and the metabolic stability in human hepatic microsome was calculated from the following formula. Metabolic stability in human hepatic microsome(mL/min/mg protein)=−LN(residual ratio)/30/0.1

| Compound | Metabolic stability in human hepatic microsome |
| --- | --- |
| CCN(CCN1CCC(n2ncc3cc(F)ccc32)CC1)C(=O)[C@H](C)O [Example 21, (2S)-N-Ethyl-N-{2-[4-(5-fluoro-1H-indazol-1-yl)piperidin-1-yl]ethyl}-2-hydroxypropanamide] | <0.05 mL/min/mg protein |
| CCN(CCN1CCC(c2c[nH]c3cc(F)ccc23)CC1)S(=O)(=O)CCO [Example 62] | <0.05 mL/min/mg protein |
| CC(C)N(CCN1CCC(c2noc3cc(F)ccc23)CC1)C(=O)CCO [Example 35] | <0.05 mL/min/mg protein |
| CC[C@@H](O)C(=O)N(CC)CCN1CCC(c2noc3cc(F)ccc23)CC1 [Example 29] | <0.05 mL/min/mg protein |
| CCN(CCN1CCN(c2noc3cc(F)ccc23)CC1)C(=O)C(C)O (stereo not drawn) [Example 27] | <0.05 mL/min/mg protein |
| CCN(CCN1CCC(c2noc3cc(F)ccc23)CC1)C(=O)C1CNCC1O (stereo not drawn) [Example 66] | <0.05 mL/min/mg protein |
| CCN(CCN1CCC(c2noc3cc(F)ccc23)CC1)C(=O)C1CC(O)C1 (stereo not drawn) [Example 46] | <0.05 mL/min/mg protein |
| [2H]C(C)(O)C(=O)N(CC)CCN1CCC(c2noc3cc(F)ccc23)CC1 (stereo not drawn) [Example 40] | <0.05 mL/min/mg protein |
| CCN(CCN1CCC(c2c[nH]c3ccccc23)CC1)C(=O)[C@@H](C)O [Example 49] | <0.05 mL/min/mg protein |
| CC(C)N(CCN1CCC(c2noc3cc(F)ccc23)CC1)C(=O)[C@H](C)O [Example 41] | <0.05 mL/min/mg protein |
| CCN(CCN1CCC(c2c[nH]c3ccccc23)CC1)C(=O)CCO [Example 47] | <0.05 mL/min/mg protein |
| CCN(CCN1CCC(c2noc3cc(F)ccc23)CC1)C(=O)C1CN(C)CC1O (stereo not drawn) [Example 75, N-Ethyl-N-{2-[4-(6-fluoro-1,2-benzoisoxazol-3-yl)piperidin-1-yl]ethyl}-4-hydroxy-1-methylpyrrolidine-3-carboxamide] | <0.05 mL/min/mg protein |
| CCN(CCN1CCC(c2noc3cc(F)ccc23)CC1)C(=O)C1(O)CCOCC1 [Example 11] | <0.05 mL/min/mg protein |
| CCN(CCN1CCC(c2noc3cc(F)ccc23)CC1)C(=O)C(C)(C)O [Example 6] | 0.053 mL/min/mg protein |
| CCN(CCN1CCC(c2c[nH]c3cc(F)ccc23)CC1)C(=O)[C@H](C)O [Example 20, (2S)-N-Ethyl-N-{2-[4-(6-fluoro-1H-indol-3-yl)piperidin-1-yl]ethyl}-2-hydroxypropanamide] | <0.05 mL/min/mg protein |
| CCN(CCN1CCC(c2noc3cc(F)ccc23)CC1)C(=O)C1CN(C)CCC1O (stereo not drawn) [Example 76, N-Ethyl-N-{2-[4-(6-fluoro-1,2-benzoisoxazol-3-yl)piperidin-1-yl]ethyl}-4-hydroxy-1-methylpiperidine-3-carboxamide] | <0.05 mL/min/mg protein |
| CCN(CCN1CCC(c2noc3ccccc23)CC1)S(=O)(=O)CCO [Example 61] | <0.05 mL/min/mg protein |
| CCN(CCN1CCC(c2noc3cc(F)ccc23)CC1)C(=O)C1(O)CCCN(C(C)=O)C1 (stereo not drawn) [Example 72] | 0.057 mL/min/mg protein |
| CC(O)C(=O)N(CCN1CCC(c2noc3cc(F)ccc23)CC1)CC1CC1 (stereo not drawn) [Example 30] | <0.05 mL/min/mg protein |
| CCN(CCN1CCC(n2ncc3cc(F)ccc32)CC1)S(=O)(=O)CCO [Example 63] | <0.05 mL/min/mg protein |
| CCN(CCN1CCC(c2noc3cc(F)ccc23)CC1)C(=O)C(C)CO (stereo not drawn) [Example 37] | <0.05 mL/min/mg protein |

| Compound | Metabolic stability in human hepatic microsome |
| --- | --- |
| CCN(CCN1CCC(c2noc3cc(F)ccc23)CC1)C(=O)[C@@H](C)O [Example 1, (2R)-N-Ethyl-N-{2-[4-(6-fluoro-1,2-benzoisoxazol-3-yl)piperidin-1-yl]ethyl}-2-hydroxypropanamide] | <0.05 mL/min/mg protein |
| CCN(CCN1CCC(c2noc3cc(F)ccc23)CC1)C(=O)C1(O)CCNC1 (stereo not drawn) [Example 70] | <0.05 mL/min/mg protein |
| CCN(CCN1CCC(n2ccc3cc(F)ccc32)CC1)C(=O)C(C)O (stereo not drawn) [Example 50] | <0.05 mL/min/mg protein |
| CCN(CCN1CCN(c2noc3ccccc23)CC1)C(=O)C(C)O (stereo not drawn) [Example 26] | <0.05 mL/min/mg protein |
| CCN(CCN1CCC(c2n[nH]c3cc(F)ccc23)CC1)C(=O)C(C)O (stereo not drawn) [Example 19, N-Ethyl-N-{2-[4-(6-fluoro-1H-indazol-3-yl)piperidin-1-yl]ethyl}-2-hydroxypropanamide] | <0.05 mL/min/mg protein |
| CCN(CCN1CCC(c2noc3cc(F)ccc23)CC1)C(=O)CC(C)O (stereo not drawn) [Example 10] | <0.05 mL/min/mg protein |
| CCN(CCN1CCC(c2noc3cc(F)ccc23)CC1)C(=O)[C@H]1NCC[C@H]1O [Example 68] | <0.05 mL/min/mg protein |
| CCN(CCN1CCC(c2noc3cc(F)ccc23)CC1)C(=O)C1CNCCC1O (stereo not drawn) [Example 67] | <0.05 mL/min/mg protein |
| CCN(CCCN1CCC(c2noc3cc(F)ccc23)CC1)S(=O)(=O)CCO [Example 53] | <0.05 mL/min/mg protein |
| CCN(CCCN1CCC(c2noc3cc(F)ccc23)CC1)S(=O)(=O)C(C)CO (stereo not drawn) [Example 56] | <0.05 mL/min/mg protein |
| CCN(CCN1CCC(n2ncc3cc(F)ccc32)CC1)C(=O)CCO [Example 2, N-Ethyl-N-{2-[4-(5-fluoro-1H-indazol-1-yl)piperidin-1-yl]ethyl}-3-hydroxypropanamide] | <0.05 mL/min/mg protein |
| CCN(CCN1CCC(c2noc3ccc(F)cc23)CC1)C(=O)[C@H](C)O [Example 45] | <0.05 mL/min/mg protein |
| CCN(CCN1CCC(c2c[nH]c3ccccc23)CC1)S(=O)(=O)CCO [Example 57] | 0.06 mL/min/mg protein |
| CCN(CCCN1CCN(c2noc3cc(F)ccc23)CC1)S(=O)(=O)C(C)CO (stereo not drawn) [Example 55] | 0.059 mL/min/mg protein |
| CCCN(CCN1CCC(c2noc3cc(F)ccc23)CC1)C(=O)C(C)O (stereo not drawn) [Example 39] | <0.05 mL/min/mg protein |
| CCN(CCN1CCC(c2noc3cc(F)ccc23)CC1)C(=O)C(O)C(F)(F)F (stereo not drawn) [Example 34] | <0.05 mL/min/mg protein |
| CCN(CCN1CCC(c2noc3cc(F)ccc23)CC1)C(=O)[C@H]1CC[C@H](O)CC1 [Example 43] | <0.05 mL/min/mg protein |
| CCN(CCN1CCC(c2noc3cc(F)ccc23)CC1)C(=O)CO [Example 12] | 0.089 mL/min/mg protein |
| CCN(CCN1CCC(c2noc3cc(F)ccc23)CC1)C(=O)C(F)(F)CO [Example 36] | <0.05 mL/min/mg protein |
| CCN(CCN1CCC(c2noc3cc(F)ccc23)CC1)C(=O)C(C)(C)CO [Example 7] | 0.08 mL/min/mg protein |
| CCN(CCN1CCC(c2noc3cc(F)ccc23)CC1)C(=O)C1CN(C(C)=O)CCC1O (stereo not drawn) [Example 74] | <0.05 mL/min/mg protein |

Reference: patent US12503463B2, “Aliphatic acid amide derivative” (Sumitomo Pharma Co., Ltd., priority 2019, dated 2025)
